Holding throughout (format): biochemical
Assay [1] addresses K9D3 (derivative of Anaerostipes caccae KARI) (Anaerostipes caccae, UniProt B0MCX7, S56A/S58D). Description: Inhibition of purified KARI by DHMB, spectrophotometric NADPH oxidation assay. Conditions: competitive vs. acetolactate, 30° C., pH 6.8, NADPH 0.2 mM, read-out: KI Values for KARI Inhibition by DHMB Isomers.
Protocol: (§1) The buffer was 0.1 M K^+ Hepes, pH 6.8, containing 10 mM MgCl2 and 1 mM EDTA. NADPH was present at 0.2 mM, and racemic acetolactate was present at either 3 mM or 0.725 mM (S) isomer. The rate of NADPH oxidation in the presence and absence of either fast or slow DHMB was measured. Vmax for each sample was calculated from the observed rate and the known acetolactate Km using the Michaelis-Menten equation. A volumetric Ki was estimated for each measurement in the presence of DHMB using the Michaelis-Menten equation as modified for competitive inhibition vs. acetolactate (the Km term in the MM equation is multiplied by (1+[I]/Ki), and the equation is solved for Ki. The results were converted to mM upon completion of the NMR experiment and are shown in Table 5.
The target in assay [2] is dihydroxyacid dehydratase (DHAD) (Streptococcus mutans serotype c, UniProt Q8DRT7). Briefly: Inhibition of DHAD conversion of DHIV to 2-KIV by DHMB, colorimetric assay. The conditions noted are these: read-out: inhibition constants (Ki) for DHAD. The method, then:
101: 999-1004 (1993). The assay took place in a 2 mL Eppendorf tube placed in a heating block maintained at 30° C. […] The assay was initiated by adding a 10× concentrated stock of substrate. Samples were removed (0.35 mL) at times 0.1 and 30 minutes, and the reaction was stopped by mixing into 0.35 mL 0.1 N HCl with 0.05% 2,4-dinitrophenylhydrazine (Aldrich) in a second Eppendorf tube. After incubating 30 minutes at room temperature, 0.35 mL of 4N NaOH was added to the mixture, mixed, and centrifuged at 15,000×G for 2 minutes in a centrifuge (Beckman-Coulter Microfuge 18). The absorbance of the solution at 540 nm was then measured in a 1 cm pathlength cuvette using a Cary 300 Bio UV-Vis spectrophometer (Varian). Based on a standard curve using authentic 2-KIV (Fluka), 1 OD absorbance at 540 nm is produced by 0.28 mM 2-KIV. […] Both forms of DHMB behaved liked competitive inhibitors of DHIV. […] The fast and slow isomers of DHMB had calculated inhibition constants of 7 mM and 5 mM, respectively.

Assay [3] addresses JEA1 (derivative of Pseudomonas fluorescens KARI) (Pseudomonas fluorescens, UniProt Q4K608). Briefly: Inhibition of purified KARI by DHMB, spectrophotometric NADPH oxidation assay. The conditions noted are these: competitive vs. acetolactate, 30° C., pH 6.8, NADPH 0.2 mM, read-out: KI Values for KARI Inhibition by DHMB Isomers.
Protocol: as §1

In general, Ki refers to the dissociation constant of the complex between target and ligand, obtained from inhibition or displacement.

JEA1 (derivative of Pseudomonas fluorescens KARI), sequence (Q4K608 whole entry): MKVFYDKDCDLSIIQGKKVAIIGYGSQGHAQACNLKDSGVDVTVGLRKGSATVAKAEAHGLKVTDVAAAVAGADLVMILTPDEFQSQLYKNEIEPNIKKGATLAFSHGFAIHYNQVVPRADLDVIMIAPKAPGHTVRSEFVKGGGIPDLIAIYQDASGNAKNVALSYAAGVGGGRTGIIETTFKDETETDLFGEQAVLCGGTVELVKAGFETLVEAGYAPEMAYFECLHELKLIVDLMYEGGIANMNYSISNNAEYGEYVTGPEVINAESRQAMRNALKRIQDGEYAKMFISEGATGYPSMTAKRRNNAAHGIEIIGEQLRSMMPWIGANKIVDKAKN
K9D3 (derivative of Anaerostipes caccae KARI), sequence (B0MCX7 1-343, stated change not applied): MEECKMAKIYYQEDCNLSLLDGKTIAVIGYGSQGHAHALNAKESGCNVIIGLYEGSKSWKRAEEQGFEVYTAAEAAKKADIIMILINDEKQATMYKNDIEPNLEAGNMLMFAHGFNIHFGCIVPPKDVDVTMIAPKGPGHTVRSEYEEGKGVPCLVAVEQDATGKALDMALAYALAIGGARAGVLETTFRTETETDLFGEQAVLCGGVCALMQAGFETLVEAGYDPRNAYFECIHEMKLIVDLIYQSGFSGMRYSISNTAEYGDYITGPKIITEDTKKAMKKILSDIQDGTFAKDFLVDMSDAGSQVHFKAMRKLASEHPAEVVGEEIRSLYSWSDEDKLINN
dihydroxyacid dehydratase (DHAD), sequence (Q8DRT7 whole entry): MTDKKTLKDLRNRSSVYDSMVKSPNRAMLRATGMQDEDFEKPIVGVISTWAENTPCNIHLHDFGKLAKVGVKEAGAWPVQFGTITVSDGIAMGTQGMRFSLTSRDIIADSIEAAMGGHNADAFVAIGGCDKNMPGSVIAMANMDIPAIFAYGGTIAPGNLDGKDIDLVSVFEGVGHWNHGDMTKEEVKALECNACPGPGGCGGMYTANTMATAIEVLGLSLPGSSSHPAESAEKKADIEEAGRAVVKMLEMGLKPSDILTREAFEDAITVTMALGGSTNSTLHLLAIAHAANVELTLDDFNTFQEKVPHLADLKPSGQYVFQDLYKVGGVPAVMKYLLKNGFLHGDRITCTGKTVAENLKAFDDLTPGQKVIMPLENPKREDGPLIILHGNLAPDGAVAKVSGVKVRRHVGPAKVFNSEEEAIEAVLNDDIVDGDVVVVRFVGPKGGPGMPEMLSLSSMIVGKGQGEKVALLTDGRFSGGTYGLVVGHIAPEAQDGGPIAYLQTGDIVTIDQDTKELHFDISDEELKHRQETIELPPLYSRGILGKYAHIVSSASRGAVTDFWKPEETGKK

For `C[C@H](O)[C@](C)(O)C(=O)O` [Fast DHMB, 2,3-dihydroxy-2-methyl butyrate], the Ki worked out at 300 µM in assay [1], 7000 µM in assay [2] and 230 µM in assay [3].
The corresponding values for `C[C@@H](O)[C@](C)(O)C(=O)O` [Slow DHMB, 2,3-dihydroxy-2-methyl butyrate] are 200 µM, 5000 µM and 230 µM.

For the origin of these results see patent US20120258873A1 (priority 2011, published 2012).
